From patent publication US20070142302A1, “PEPTIDYL PRODRUGS THAT RESIST P-GLYCOPROTEIN MEDIATED DRUG EFFLUX” (The Curators of the University of Missouri, priority 2004, published 2007)
Entries after “also recorded” stand apart in the source; their conditions may differ. Blank lines part the entries; values can stand above or below the compound they belong to. Square brackets hold non-standard residues; d marks the D form. Peptide text beside a SMILES is read from it. Sar = CNCC(=O)O

How the values were obtained:
peptide transporter [1] = test: Uptake of [^3H]Gly-Sar by MDCKII-MDR1 cells in the presence of drug/derivative; type: cell-based, dog; settings: for Effect on [^3H]Gly-Sar uptake: 100 μM SQV or prodrug; for Reduction of [^3H]Gly-Sar uptake: 100 μM prodrug; for Concentration dependence of inhibition of [^3H]Gly-Sar uptake: SQV prodrugs, different concentrations up to 100 μM
[2] = system: MDCKII-MDR1 cell homogenates; settings: dog
Experimental: Confluent MDCKII-MDR1 cells were washed three times with Dulbecco's phosphate buffered saline (DPBS) (130 mM NaCl, 7.5 mM Na2HPO4, 1.5 mM KH2PO4, 0.5 mM MgSO4, 1 mM CaCl2, […] and 5 mM glucose). Cells were then isolated with the aid of a mechanical scrapper and suspended in two volumes of water and homogenized (Multipro variable speed homogenizer, DREMEL; Racine, Wis.). Suitable dilutions were made to achieve a final protein concentration of 0.25 mg/mL. Protein content was determined according to the method of Bradford (Bradford, Anal. Biochem., 72, 248 (1976)) with BioRad protein estimation kit.
An aliquot (800 μL) of the cell homogenate was incubated with 200 μL (30 μg/mL) prodrug solution at 37° C. in a shaking water bath (60 rpm). One hundred microlitres samples were withdrawn at predetermined time points and an equal volume of ice-cold acetonitrile:methanol (5:4) mixture was added to stop the enzymatic reaction. Samples were stored at −80° C. until further analysis.

P-gp [3] = target: P-gp (Homo sapiens, UniProt P08183); settings: MDCKII-MDR1 cells
Sequence of P-gp (Homo sapiens, UniProt P08183) (P08183 whole entry): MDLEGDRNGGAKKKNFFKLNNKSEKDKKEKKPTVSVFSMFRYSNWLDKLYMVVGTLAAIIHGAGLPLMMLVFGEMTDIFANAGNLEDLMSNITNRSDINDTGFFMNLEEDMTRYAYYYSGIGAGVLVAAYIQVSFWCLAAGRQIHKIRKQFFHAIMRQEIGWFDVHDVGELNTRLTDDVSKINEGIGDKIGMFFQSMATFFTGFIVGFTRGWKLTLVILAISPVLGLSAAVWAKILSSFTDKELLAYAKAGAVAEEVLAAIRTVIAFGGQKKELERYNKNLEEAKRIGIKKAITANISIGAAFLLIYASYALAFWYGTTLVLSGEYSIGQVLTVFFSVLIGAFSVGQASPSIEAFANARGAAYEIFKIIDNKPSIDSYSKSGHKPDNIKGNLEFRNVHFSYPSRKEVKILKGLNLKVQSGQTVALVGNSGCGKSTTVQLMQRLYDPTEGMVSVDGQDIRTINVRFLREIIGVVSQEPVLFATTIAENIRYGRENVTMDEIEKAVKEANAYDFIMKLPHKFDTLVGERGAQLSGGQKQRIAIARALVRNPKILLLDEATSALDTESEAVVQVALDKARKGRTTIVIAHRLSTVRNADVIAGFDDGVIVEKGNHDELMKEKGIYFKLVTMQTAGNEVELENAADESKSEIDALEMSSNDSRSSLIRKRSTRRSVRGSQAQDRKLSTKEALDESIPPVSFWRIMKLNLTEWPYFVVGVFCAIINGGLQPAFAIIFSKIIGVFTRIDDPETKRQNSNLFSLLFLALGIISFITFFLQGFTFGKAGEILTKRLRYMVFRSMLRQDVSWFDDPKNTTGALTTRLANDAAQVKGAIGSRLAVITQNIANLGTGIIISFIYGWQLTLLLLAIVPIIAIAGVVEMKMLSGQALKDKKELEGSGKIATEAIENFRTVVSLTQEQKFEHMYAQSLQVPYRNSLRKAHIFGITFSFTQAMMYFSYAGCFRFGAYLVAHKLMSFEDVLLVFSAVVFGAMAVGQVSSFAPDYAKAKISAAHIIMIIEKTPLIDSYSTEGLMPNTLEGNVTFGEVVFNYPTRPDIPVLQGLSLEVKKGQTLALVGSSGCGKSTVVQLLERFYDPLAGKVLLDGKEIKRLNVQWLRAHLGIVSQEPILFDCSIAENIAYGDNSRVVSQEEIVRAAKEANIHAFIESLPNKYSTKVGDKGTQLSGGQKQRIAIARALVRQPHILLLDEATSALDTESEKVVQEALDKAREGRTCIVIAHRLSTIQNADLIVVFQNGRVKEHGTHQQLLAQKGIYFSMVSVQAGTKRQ
From the text: Two different concentrations were employed to examine the effect of prodrug concentration on P-gp inhibition.

[4] = buffer
Experimental: Stability in DPBS was determined by incubating 200 μL prodrug solution with 800 μL DPBS with pH adjusted to 5 and 7.4. Slope of the line of “log percentage prodrug remaining versus time” plot was employed to calculate the degradation rate constants.

[5] = system: MDCKII-MDR1 cell monolayers; test: in vitro
Experimental: (§1) Confluency was assessed by light microscopy.
(§2) Transport studies were conducted with MDCKII-MDR1 cell monolayers grown on 12-well Transwell® inserts (12 mm diameter). The medium was aspirated, and cell monolayers were washed three times (10 minutes per wash) with DPBS (pH 7.4). Volumes of the apical and basolateral chambers were 0.5 and 1.5 ml, respectively. Transport experiments were conducted for a period of 3 hours. Aliquots (200 μl) were withdrawn at predetermined time intervals, i.e., 15, 30, 45, 60, 90, 120, 150, and 180 minutes and replaced with fresh DPBS (pH 7.4) to maintain sink conditions. Samples were stored at −80° C. until further analysis. Experiments designed to investigate the effect of inhibitors involved preincubation of the cells with the inhibitor for a period of 30 minutes (inhibitor solution was added to both donor and receiver chambers) prior to the addition of the drug solution (also containing the inhibitor) to initiate the transport study. All transport experiments were performed at 37° C.
(§3) The HPLC system comprised an HP 1050 pump, an Agilent 1100 series fluorescence detector, and an Alcott autosampler (model 718 HPLC). A C(8) Luna column (250 mm×4.6 mm); Phenomenex, Torrance, Calif.) was employed in the analysis. The mobile phase consisted of 20 mM phosphate buffer (pH adjusted to 2.5) and 12% acetonitrile as the organic modifier. The parent drug and the derivative were detected with a fluorescence detector (λex=240 nm, λem=450 nm).
(§4) Linear regression analysis of the amounts transported as a function of time yielded the rate of transport across the cell monolayer (dM/dt). The rate divided by the cross-sectional are available for transport (A) generated the steady-state flux as shown in Equation 1. flux=(dM/dt)/A (Equation 1) Permeability was calculated by normalizing the steady-state flux to the donor concentration (Cd) of the drug according to Equation 2. Permeability=flux/Cd (Equation 2)
(§5) Transport studies with MDCKII-MDR1 cell monolayers were carried out as described in Example 7. […] Detection issues of the prodrug and/or parent drug in the acceptor chamber was considered for the selection of prodrug concentration. Aliquots (200 μL) were withdrawn at predetermined time intervals, i.e., 15, 30, 45, 60, 90, 120, 150, 180 min, respectively, and replaced with fresh DPBS, pH 7.4, to maintain sink conditions. Dilutions were taken into account for the calculations. Samples were stored at −80° C. until further analysis. All transport experiments were performed at 37° C.
(§6) The HPLC system was comprised of HP 1050 pump, Waters dual wavelength absorbance UV detector, and an Alcott auto sampler (model 718AL HPLC). A C(8) Luna column (250 mm×4.6 mm; Phenomenex, Torrance, Calif.) was employed for the separation of analytes. Mobile phase composed of acetonitrile:water:triethylamine (55:44:1%, v/v/v) and the pH was adjusted to 6.5 with o-phosphoric acid. Flow rate was maintained at 0.8 mL/min and detection wavelength was set at 240 nm.
(§7) Intact prodrug transported and breakdown products, formed during the transport study, were analyzed. Cumulative amount of drug transported (the sum of prodrug and regenerated parent drug) was plotted as a function of time. Apparent permeabilities (Papp) were determined from the linear portion of the cumulative amount versus time plot.

in vitro = settings: dog, MDCK-MDR1
Experimental: as §1, §2, §3, §4, §5, §6, §7

P-gp [6] = target: P-gp (Oryctolagus cuniculus, UniProt Q6UUW3); settings: rPCEC cells, equimolar concentrations
Sequence of P-gp (Oryctolagus cuniculus, UniProt Q6UUW3) (Q6UUW3 1-1279): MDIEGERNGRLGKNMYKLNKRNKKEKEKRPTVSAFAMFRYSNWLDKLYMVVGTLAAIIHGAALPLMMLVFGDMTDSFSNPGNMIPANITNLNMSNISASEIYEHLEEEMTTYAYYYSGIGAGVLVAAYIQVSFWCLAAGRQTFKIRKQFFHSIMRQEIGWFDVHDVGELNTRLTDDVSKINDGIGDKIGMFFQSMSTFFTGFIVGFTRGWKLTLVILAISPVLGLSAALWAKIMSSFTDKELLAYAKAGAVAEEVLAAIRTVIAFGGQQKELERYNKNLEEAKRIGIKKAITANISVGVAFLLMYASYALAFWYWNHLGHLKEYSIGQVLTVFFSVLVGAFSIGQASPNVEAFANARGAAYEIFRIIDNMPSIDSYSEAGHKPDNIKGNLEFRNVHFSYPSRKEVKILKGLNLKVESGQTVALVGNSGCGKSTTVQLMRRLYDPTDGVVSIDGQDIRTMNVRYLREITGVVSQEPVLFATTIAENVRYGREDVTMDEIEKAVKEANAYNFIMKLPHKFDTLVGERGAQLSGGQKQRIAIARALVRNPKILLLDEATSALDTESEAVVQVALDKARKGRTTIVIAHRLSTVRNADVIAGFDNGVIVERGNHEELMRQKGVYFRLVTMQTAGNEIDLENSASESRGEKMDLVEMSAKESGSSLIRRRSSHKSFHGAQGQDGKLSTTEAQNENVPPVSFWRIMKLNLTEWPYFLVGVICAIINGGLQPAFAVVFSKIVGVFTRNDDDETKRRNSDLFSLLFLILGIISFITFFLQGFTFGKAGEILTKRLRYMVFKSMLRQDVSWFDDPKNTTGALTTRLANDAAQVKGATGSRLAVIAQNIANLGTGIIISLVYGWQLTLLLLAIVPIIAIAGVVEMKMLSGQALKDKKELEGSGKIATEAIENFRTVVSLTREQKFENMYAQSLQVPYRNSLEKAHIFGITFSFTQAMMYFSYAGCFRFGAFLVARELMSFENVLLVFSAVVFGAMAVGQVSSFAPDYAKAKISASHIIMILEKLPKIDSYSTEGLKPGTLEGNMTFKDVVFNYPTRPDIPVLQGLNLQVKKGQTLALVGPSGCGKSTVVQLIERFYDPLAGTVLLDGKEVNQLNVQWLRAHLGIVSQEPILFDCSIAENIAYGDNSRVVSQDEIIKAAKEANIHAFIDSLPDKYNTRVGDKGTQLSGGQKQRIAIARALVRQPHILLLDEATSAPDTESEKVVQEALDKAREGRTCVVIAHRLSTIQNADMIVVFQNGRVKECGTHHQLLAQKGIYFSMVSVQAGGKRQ

peptide transporter [7] = test: Uptake of [^3H]Gly-Sar by MDCKII-MDR1 cells in the presence of drug/derivative; type: cell-based, dog; settings: for Inhibition of [^3H]Gly-Sar uptake: MDCKII-MDR1 cells, quinidine and derivatives; for Uptake of [^3H]Gly-Sar: control 0.033
Experimental: Studies were performed to investigate whether derivatives of quinidine are substrates for a nutrient peptide transport system.
Unlabeled Gly-Sar at concentrations of 1 and 2 mM reduced the uptake of [^3H]Gly-Sar from 0.033 to 0.026 pmol/(min mg) (20%) and 0.019 pmol/(min mg) (41%), respectively (FIG. 9).

P-gp [8] = settings: rabbit, in vivo
Experimental: Adult male New Zealand albino rabbits weighing between 2-2.5 kg were obtained from Myrtle's rabbitry, Thompson Station, Tenn. Throughout an experiment, the animals were kept under anesthesia with ketamine HCl (35 mg/kg) and xylazine (3.5 mg/kg) given intramuscularly every hour. Pupils were dilated with two drops of 1% tropicamide prior to implantation of microdialysis probes. Linear probes were implanted in the anterior chamber using 25-gauge needles. They were inserted across the cornea just above the corneal scleral limbus so that they traversed through the center of the anterior chamber to the opposite end of the cornea, as evidenced by microscopic examination. The sample-collecting end of the linear probe was inserted carefully into the beveled edge end of the needle. The needle was retracted slowly, leaving the probe in the dialyzing membrane in the middle of the anterior chamber. The outlets of the probes were fixed to prevent any disturbances during sample collection. The probes were perfused with isotonic IPBS (pH 7.4) at a flow rate of 2 μl/min using a CMA/100 microinjection pump. After probe implantation, the animals were allowed to stabilize for 2 hours prior to the initiation of any study. […] Samples obtained in the study were analyzed by a scintillation counter (LS 6500, Beckman Instruments, Inc., Fullerton, Calif.).

P-gp (human MDR1) = test: in vitro; settings: dog, MDCK-MDR1, pH 7.4
Experimental: as §1, §2, §3, §4, §5, §6, §7

Half-life (t1/2) in MDCK-MDR1 cell homogenates [2]: 6.6 ± 0.56 h | Concentration at which the prodrug saturates P-gp (P-gp [3]): 50 µM | Half-life (t1/2) in DPBS, pH 5 [4]: 94.8±21.4 h | Half-life (t1/2) in DPBS, pH 7.4 [4]: 18.3±1.4 h | Efflux ratio (BL Papp/AP Papp) ([5]; MDCK-MDR1): 6
SMILES: CC(C)[C@H](N)C(=O)N[C@H](C(=O)O[C@H](CN1C[C@H]2CCCC[C@H]2C[C@H]1C(=O)NC(C)(C)C)[C@H](Cc1ccccc1)NC(=O)[C@H](CC(N)=O)NC(=O)c1ccc2ccccc2n1)C(C)C [Val-Val-SQV, Val-Val-saquinavir]
Effect on [^3H]Gly-Sar uptake (peptide transporter [1]): significantly decreased | Reduction of [^3H]Gly-Sar uptake (peptide transporter [1]): 35% | Concentration dependence of inhibition of [^3H]Gly-Sar uptake (peptide transporter [1]): concentration dependent inhibition

Half-life (t1/2) in MDCK-MDR1 cell homogenates [2]: 1.75 ± 0.11 h | Concentration at which the prodrug saturates P-gp (P-gp [3]): 75 µM | Half-life (t1/2) in DPBS, pH 5 [4]: 34.5±0.85 h | Half-life (t1/2) in DPBS, pH 7.4 [4]: 13.1±0.33 h | Efflux ratio (BL Papp/AP Papp) ([5]; MDCK-MDR1): 6
SMILES: CC(C)[C@H](NC(=O)CN)C(=O)O[C@H](CN1C[C@H]2CCCC[C@H]2C[C@H]1C(=O)NC(C)(C)C)[C@H](Cc1ccccc1)NC(=O)[C@H](CC(N)=O)NC(=O)c1ccc2ccccc2n1 [Gly-Val-SQV, Gly-Val-saquinavir]
Effect on [^3H]Gly-Sar uptake (peptide transporter [1]): significantly decreased | Reduction of [^3H]Gly-Sar uptake (peptide transporter [1]): 42% | Concentration dependence of inhibition of [^3H]Gly-Sar uptake (peptide transporter [1]): concentration dependent inhibition

[^14C]mannitol transport across the cell monolayer ([5]; dog, MDCK-MDR1): < 0.5 %/h | Papp (in vitro): < 0.2 ×10⁻⁶ cm/s
SMILES: OC[C@@H](O)[C@@H](O)[C@H](O)[C@H](O)CO [[^14C]mannitol, mannitol, reference compound]

SMILES: C=C[C@H]1C[N@@]2CC[C@H]1C[C@@H]2[C@@H](O)c1ccnc2ccc(OC)cc12 [quinidine, reference compound]
Inhibitory effect on P-gp mediated efflux ([^3H]erythromycin uptake) (P-gp [6]): high inhibitory effect | Inhibition of [^3H]Gly-Sar uptake (peptide transporter [7]): did not demonstrate any inhibition | Inhibition of the P-gp mediated efflux pump (P-gp [8]): caused inhibition | Difference between AP-BL and BL-AP permeability ([5]; MDCK-MDR1): three fold difference | Papp A→B at 3 h, 10 μM (P-gp (human MDR1)): 6.5 ×10⁻⁶ cm/s | Papp B→A at 3 h, 10 μM (P-gp (human MDR1)): 18.3 ×10⁻⁶ cm/s

SMILES: C=CC1CN2CCC1CC2C(OC(=O)C(N)C(C)C)c1ccnc2ccc(OC)cc12 (centres unmarked) [Val-Q, Val-Quinidine]
Inhibition of [^3H]Gly-Sar uptake (peptide transporter [7]): concentration dependent inhibition | Difference between AP-BL and BL-AP permeability ([5]; MDCK-MDR1): equivalent | Apparent permeability Papp AP-BL ([5]; MDCK-MDR1, pH 7.4): 5.13±0.49×10^−6 cm.s^−1 | Apparent permeability Papp BL-AP ([5]; MDCK-MDR1, pH 7.4): 6.17±1.28×10^−6 cm.s^−1

SMILES: C=C[C@H]1CN2CC[C@H]1C[C@@H]2[C@@H](OC(=O)[C@@H](NC(=O)[C@@H](N)C(C)C)C(C)C)c1ccnc2ccc(OC)cc12 [Val-Val-Q, Val-Val-Quinidine]
Inhibition of [^3H]Gly-Sar uptake (peptide transporter [7]): concentration dependent inhibition

SMILES: CC(C)(C)NC(=O)[C@@H]1C[C@@H]2CCCC[C@@H]2CN1C[C@@H](O)[C@H](Cc1ccccc1)NC(=O)[C@H](CC(N)=O)NC(=O)c1ccc2ccccc2n1 [SQV, saquinavir, reference compound]
Effect on [^3H]Gly-Sar uptake (peptide transporter [1]): did not demonstrate any significant inhibition

SMILES: CN(CC(=O)O)C(=O)CN [Gly-Sar, Glycyl-Sarcosine] (H-Gly-[Sar]-OH)
Reduction of [^3H]Gly-Sar uptake (peptide transporter [7]; 1 mM unlabeled Gly-Sar): 20% | Uptake of [^3H]Gly-Sar (peptide transporter [7]; 1 mM unlabeled Gly-Sar): 0.026 pmol/min/mg | Reduction of [^3H]Gly-Sar uptake (peptide transporter [7]; 2 mM unlabeled Gly-Sar): 41% | Uptake of [^3H]Gly-Sar (peptide transporter [7]; 2 mM unlabeled Gly-Sar): 0.019 pmol/min/mg | Concentration dependence of [^3H]Gly-Sar cellular accumulation (peptide transporter [7]; unlabeled Gly-Sar 1 mM and 2 mM): concentration dependent decrease; also recorded: concentration dependent reduction
